Measurements as given in PubChem BioAssay AID236 (DTP/NCI, 2004).
Several values for one entry are separate records, joined by “and”; a condition that tells them apart may be missing. Identical values can stand only once. Inconclusive results and toxic doses are left out.

System: AK4 lymphoid leukemia ip, C3AKF1 mice, survival
Assay: NCI In Vivo Anticancer Drug Screen. Data for tumor model AK4 Lymphoid Leukemia (intraperitoneal) in C3AKF1 (CHKRF1) mice
Conditions: endpoint: median survival time, schedule: Q01DX010 (ip), higher = longer survival
Experimental: The antitumor activity of compounds was measured in mice bearing transplantable tumors. Survival or tumor size were measured and the results are expressed as the measurement made in the treated group (T) divided by the measurement made in the vehicle treated control group (C). The tumor model used in this assay is AK4 Lymphoid Leukemia (intraperitoneal) in C3AKF1 (CHKRF1) mice

[1] = dose: 8.0 mg/kg/injection, vehicle: saline
[2] = dose: 16.0 mg/kg/injection, vehicle: saline
[3] = dose: 18.8 mg/kg/injection, vehicle: saline
[4] = dose: 37.5 mg/kg/injection, vehicle: saline
[5] = dose: 75.0 mg/kg/injection, vehicle: saline
[6] = dose: 125.0 mg/kg/injection, vehicle: saline
[7] = dose: 200.0 mg/kg/injection, vehicle: saline

C=CC(CN1CC1)OC(C)=O (configuration not stated)
T/C (dose: 2.0 mg/kg/injection, vehicle: saline): 90 % of control and 100 % of control | T/C (dose: 4.0 mg/kg/injection, vehicle: saline): 95 % of control and 111 % of control | T/C [1]: 88 % of control and 120 % of control | T/C [2]: 90 % of control

CN(C)c1nc(N(C)C)nc(N(C)C)n1
T/C [3]: 94 % of control | T/C [4]: 100 % of control | T/C [5]: 94 % of control | T/C (dose: 150.0 mg/kg/injection, vehicle: saline): 100 % of control

N#CCSc1ncnc2nc[nH]c12
T/C (dose: 15.0 mg/kg/injection, vehicle: saline): 87 % of control | T/C (dose: 30.0 mg/kg/injection, vehicle: saline): 93 % of control | T/C (dose: 60.0 mg/kg/injection, vehicle: saline): 93 % of control | T/C (dose: 120.0 mg/kg/injection, vehicle: saline): 87 % of control

CN(N=O)C(N)=O
T/C (dose: 10.0 mg/kg/injection, vehicle: saline): 162 % of control | T/C (dose: 20.0 mg/kg/injection, vehicle: saline): 225 % of control | T/C (dose: 40.0 mg/kg/injection, vehicle: saline): 112 % of control

CSCS(=O)C[C@H](CO)NC(=O)/C=C/c1c(C)[nH]c(=O)[nH]c1=O (some centres not stated)
T/C (dose: 125.0 micrograms/kg/injection, vehicle: saline): 93 % of control | T/C (dose: 250.0 micrograms/kg/injection, vehicle: saline): 87 % of control | T/C (dose: 500.0 micrograms/kg/injection, vehicle: saline): 87 % of control

CS(=O)(=O)OCCCl
T/C [3]: 100 % of control | T/C [4]: 100 % of control | T/C [5]: 100 % of control

CCN(CC)C(=S)S
T/C [6]: 87 % of control | T/C (dose: 250.0 mg/kg/injection, vehicle: saline): 87 % of control | T/C (dose: 500.0 mg/kg/injection, vehicle: saline): 87 % of control | T/C (dose: 1000.0 mg/kg/injection, vehicle: saline): 93 % of control

Nc1nc(=S)c2[nH]cnc2[nH]1
T/C (dose: 1.25 mg/kg/injection, vehicle: other): 100 % of control and 114 % of control | T/C (dose: 2.5 mg/kg/injection, vehicle: other): 93 % of control and 114 % of control | T/C (dose: 5.0 mg/kg/injection, vehicle: other): 112 % of control | T/C (dose: 10.0 mg/kg/injection, vehicle: other): 106 % of control

CCn1cnc2c(=S)nc[nH]c21
T/C (dose: 15.6 mg/kg/injection, vehicle: saline): 100 % of control | T/C (dose: 31.3 mg/kg/injection, vehicle: saline): 88 % of control | T/C (dose: 62.5 mg/kg/injection, vehicle: saline): 88 % of control | T/C [6]: 105 % of control

CS(=O)(=O)OCCCCOS(C)(=O)=O
T/C (dose: 6.25 mg/kg/injection, vehicle: saline): 87 % of control and 100 % of control | T/C (dose: 12.5 mg/kg/injection, vehicle: saline): 100 % of control and 87 % of control | T/C (dose: 25.0 mg/kg/injection, vehicle: saline): 100 % of control | T/C (dose: 50.0 mg/kg/injection, vehicle: saline): 87 % of control and 100 % of control

O=C(Nc1ccc(C2=NCCN2)cc1)c1cccc(C(=O)Nc2ccc(C3=NCCN3)cc2)c1
T/C [1]: 115 % of control | T/C [2]: 150 % of control and 165 % of control | T/C (dose: 32.0 mg/kg/injection, vehicle: saline): 205 % of control and 210 % of control | T/C (dose: 64.0 mg/kg/injection, vehicle: saline): 235 % of control and 245 % of control

CN(C)/N=N/c1nc[nH]c1C(N)=O
T/C (dose: 100.0 mg/kg/injection, vehicle: saline): 155 % of control and 166 % of control | T/C [7]: 177 % of control and 205 % of control

CN(C)CC(=O)c1ccc(O)c(O)c1
T/C [7]: 112 % of control | T/C (dose: 300.0 mg/kg/injection, vehicle: saline): 100 % of control | T/C (dose: 450.0 mg/kg/injection, vehicle: saline): 112 % of control | T/C (dose: 675.0 mg/kg/injection, vehicle: saline): 118 % of control
